{"source": "patent US9221900B2", "about": "“Methods for identifying safe and functional humanized antibodies” (AC IMMUNE S.A., priority 2010, dated 2015)", "key": {"FcγRIIIa-V158": {"target": "T1, FcγRIIIa-V158 (Homo sapiens, UniProt P08637, F176V)", "T1 construct": "fusion proteins containing the extracellular domain of the receptor γ-chain", "T1 sequence (P08637 17-208 F176V)": "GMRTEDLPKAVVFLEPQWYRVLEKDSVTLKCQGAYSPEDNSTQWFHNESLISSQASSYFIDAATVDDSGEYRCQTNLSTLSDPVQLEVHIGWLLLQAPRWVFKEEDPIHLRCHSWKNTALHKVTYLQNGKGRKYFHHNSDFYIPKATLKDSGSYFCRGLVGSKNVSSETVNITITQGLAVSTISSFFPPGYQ", "experiment": "FcγR binding ELISA, FcγRIIIa-V158", "conditions": "cross-linked IgG mAb", "procedure": "The ability of these different monoclonal antibody backbones to internalize Aβ1-42 oligomers into microglia was then compared using confocal imaging on Aβ1-42 oligomer treated primary cortical microglia. […] To verify that microglia are indeed the cells taking up Aβ1-42 complexed to monoclonal antibodies, the study was repeated using HiLyte Fluor-488 tagged Aβ1-42 and co-stained for the microglial marker Iba1.\n(§1) The binding of test antibodies to a panel of human Fcγ receptors (FcγRs) was measured using enzyme-linked immunosorbent assay (ELISA). Human FcγRs (Genentech, Inc., CA) are fusion proteins containing the extracellular domain of the receptor γ-chain with a Gly/6xHis/glutathione S transferase (GST) polypeptide tag at the C terminus. A monoclonal antibody with human IgG1 framework was used as the positive control (IgG1 control) in this experiment. Plates were coated with a mouse monoclonal anti GST antibody (Genentech, Inc.) in a 0.05 M sodium carbonate buffer (pH 9.6) overnight at 4° C. After blocking with an assay buffer containing phosphate buffered saline (PBS), 0.5% BSA, and 0.05% Tween-20, the plates were incubated with FcγRs at room temperature for 1 h. Human FcγRs were immobilized to the plate via interaction with the anti-GST coating. […] Diluted samples were applied as monomeric forms for the high affinity receptor (FcγRIa), or multimeric forms for the low affinity receptors (FcγRIIa, FcγRIIb, and FcγRIIIa). […] The antibodies bound to the FcγRs were detected with horseradish peroxidase (HRP)-conjugated F(ab′)2 fragment of goat anti human F(ab′)2 (Jackson ImmunoResearch Laboratories; West Grove, Pa.). […] The reaction was terminated with 1 M H3PO4, and absorbance at 450 nm with reference at 650 nm was measured on a plate reader (Molecular Devices, Sunnyvale, Calif.). Binding curves were generated by plotting the mean absorbance values from duplicates of sample dilutions against the respective sample absorbance."}, "[1]": {"test_system": "human Fcγ receptors (FcγRIa, FcγRIIa, FcγRIIb, FcγRIIIa)", "experiment": "FcγR binding ELISA, panel of human Fcγ receptors", "conditions": "cross-linked antibody", "procedure": "FIG. 10 provides graphs and immunocytochemical images corresponding to the experiments described in Example 6.5. […] These findings are consistent with published data for human IgG4 antibodies (Gessner et al., 1998) and IgG1 antibodies carrying the D265A mutation (Shields et al., 2001).\nas §1, with “FcγRIIIa). The multimeric forms of test antibodies were generated by cross linking F(ab′)2 fragment of goat anti human κ-chain (MP Biomedicals, Solon, Ohio), with test monoclonal antibody at an approximate molar ratio of 3:1. The plates were incubated with FcγRs at room temperature for 2 h.” for “FcγRIIIa).”"}, "microglia": {"test_system": "microglia", "experiment": "Confocal imaging of microglial uptake of Aβ1-42 oligomers", "type": "cell-based, rat", "conditions": "for Aβ1-42 oligomer internalization into microglia, rank order: primary cortical microglia", "method": "Aβ1-42 oligomers are shown in red, and blue is DAPI staining of DNA to show the microglia itself (A). An apical-to-distal slice was obtained from a three-dimensional image rendered from Z-stacks. Confocal imaging was performed on mixed cortical cells labeled for Aβ (red) and stained with DAPI (blue) as described in the Example Section under Materials and Methods. Microglia were identified and scanned for the maximum fluorescence intensity through a series of confocal stacks representing intracellular locations (B), and the total area of fluorescent signal above a minimum threshold was quantified (C). Each mark on the graph represents the total area of Aβ stained within a single cell. A minimum of 20 cells were analyzed for each treatment condition. Data were compared using one-way ANOVA followed by Tukey post-hoc multiple comparison. Means (±SEM) are shown. […] Red is Iba1 staining, green is HyLite Fluor-488-labeled Aβ1 42, and blue is DAPI staining. […] Statistical analysis was done using one-way ANOVA followed by Tukey post-hoc multiple comparison.\nCells were grown on a glass coverslips. Following treatment, cells were quickly washed with PBS and then fixed with 4% paraformaldehyde for 20 min. After thorough washes, cells were immersed in 100% methanol for 10 min at −20° C. They were then washed again and incubated in a blocking solution, PBS containing 10% normal goat serum for 1 h at room temperature. After an overnight incubation with the primary antibody, cells were washed and incubated for 2 h with the secondary antibody, then washed and mounted on glass slides using ProLong Gold antifade reagent (Invitrogen). Epifluorescence and confocal images were acquired on a LSM 700 inverted microscope from Zeiss, using a 63× lens. Fluorescence intensity was measured in cell bodies delineated by saturated epifluorescence pictures. Z-stacks were rendered into a three-dimensional image using ImageJ 1.42 (National Institutes of Health, freeware) from which an apical to distal slice containing the labeled proteins was obtained. Cells treated with HyLite Fluor-488-tagged Aβ1-42 were treated in the same way except no primary or secondary antibodies were used to label for Aβ1-42."}, "p38MAPK": {"test_system": "p38MAPK", "experiment": "Phospho-p38MAPK ELISA", "type": "cell-based, rat", "conditions": "10 μM Aβ1-42 oligomers for 30 min, 100 μg/mL antibody", "procedure": "FIG. 5 provides graphs and immunocytochemical images corresponding to the experiments described in Example 6.6. […] An IgG1 monoclonal antibody not binding to Aβ was used as control. The activity of p38MAP K was measured by a phospho-specific ELISA as described in Methods (A). The mean (±SEM) of 4 independent experiments is shown. Statistical analysis was done using one-way ANOVA followed by Tukey post-hoc multiple comparison. Activation of p38MAPK with Aβ1-42 oligomers complexed with monoclonal antibody was specific to microglia (B). Cells were treated as described above and then stained for phospho-p38MAP K (green), with Iba1 (red), and with DAPI (blue). […] Pure microglia from CX3CR1-GFP mice were used to verify microglia-specific p38 activity (C). […] A cytotoxicity assay using the MTT readout was performed after 24 h. The mean (±SEM) of 4 experiments is shown. […]\nRat cortical cultures were seeded onto poly-L-lysine coated 6-well cell-culture plates (Costar, Cambridge, Mass., USA) and used at DIV 5. […] Protein concentration was determined by the BCA assay (Pierce, Rockford, Ill., USA). For semi-quantitative measure of p38MAPK activation, a rat phospho-p38MAPK colorimetric ELISA kit was used (Cell Signaling Technology, Beverly, Mass., USA), following the manufacturer's instructions. Plates were read on a spectrophotometric microplate reader (Tecan) at a […]. […]"}}, "data": [{"substance": "MABT-IgG1: same antigen binding sequences as MABT on human IgG1 wild-type backbone with full FcγR-binding capacity", "values": [{"measurement": "binding to FcγRIIIa-V158, hierarchy", "setting": "FcγRIIIa-V158", "value": "MABT-IgG>MABT>MABT-IgG1-D265A"}, {"measurement": "binding to FcγRs", "setting": "[1]", "value": "bound to all FcRγ receptors with activities similar to the positive non-Aβ-binding IgG1 control"}, {"measurement": "microglial morphology and Iba1 staining", "setting": "microglia; Aβ1-42 in combination with antibody", "value": "more condensed nuclei and brighter Iba1 staining"}, {"measurement": "Aβ1-42 oligomer internalization into microglia, rank order", "setting": "microglia", "value": "MABT-IgG1>MABT>MABT-IgG1-D265A"}, {"measurement": "Aβ1-42 oligomer-induced p38MAPK activity", "setting": "p38MAPK", "value": "increased the Aβ1-42 oligomer-induced p38MAPK activity even further"}]}, {"substance": "MABT: humanized anti-Aβ monoclonal antibody of IgG4 isotype, affinity matured and humanized form of mouse mMABT", "values": [{"measurement": "binding to FcγRIIIa-V158, hierarchy", "setting": "FcγRIIIa-V158", "value": "MABT-IgG>MABT>MABT-IgG1-D265A"}, {"measurement": "binding to FcγRs", "setting": "[1]", "value": "substantially reduced binding to all the FcγRs"}, {"measurement": "uptake of Aβ1-42 oligomers into microglia", "setting": "microglia; mixed neuronal cultures, apparent from 30 minutes", "value": "mediated rapid uptake of Aβ1-42 oligomers into cellular profiles likely to be microglia"}, {"measurement": "Aβ1-42 oligomer internalization into microglia, rank order", "setting": "microglia", "value": "MABT-IgG1>MABT>MABT-IgG1-D265A"}, {"measurement": "Aβ1-42 oligomer-induced p38MAPK activity", "setting": "p38MAPK", "value": "did not reduce the Aβ1-42 oligomer-induced p38MAPK activity, but rather showed a trend towards higher activity"}]}]}
